“And” between values parts separate entries of the source, which are not always exact repeats. Equal entries are not always repeated. Structures can show the parent of a compound that is named as a salt. Where two headings read alike, the source gives them in different places.

A short description of series [1]: Hygroscopicity: change in weight after storage at different RH (%) for 24 hrs. The series is classed as physicochemical. As to conditions: for Deliquescence (in words): RH of 64%. As to the method: To evaluate the hygroscopicity of the powder and α-form crystals of deoxyspergualin hydrochloride, the change of the weight of each sample was measured after storage in different RH (%) for 24 hrs. To evaluate the hygroscopicity of the powder and β-form crystals of deoxyspergualin hydrochloride, the change in the weight of each sample was measured after storage in different RH (%) for 24 hrs. The hygroscopicity each of the Powder A and α-form crystals and β-form crystals of the above-identified application was evaluated by measuring the change in weight after storage in various RH(%) for 24 hrs.

Series [2] in a line: Heat stability: undecomposed substance by HPLC after storage at 50° C. for 6 days. It counts as physicochemical. As to the method:
To evaluate the heat stability of α-form crystals of deoxyspergualin hydrochloride in comparison with that of the powder, samples were stored at 50° C. for 6 days and were analyzed by high-pressure liquid chromatography (HPLC), and the amount of undecomposed substance was measured.
To evaluate the heat stability of β-form crystals of deoxyspergualin hydrochloride in comparison with that of the powder, samples were stored at 50° C. for 6 days, and analyzed by HPLC to measure the amount of undecomposed substance.
To evaluate the heat stability of the Powder A in comparison with those of α-form crystals and β-form crystals of the above-identified application, samples were stored at 50° C. for 6 days and then analyzed by HPLC to measure the amount of undecomposed substance.

Consider `N=C(N)NCCCCCCC(=O)NC(O)C(=O)NCCCCNCCCN` (centres unmarked) [Powder, N-[4-(3-aminopropyl)aminobutyl]-2-(7-guanidinoheptanamide)-2-hydroxyethanamide trihydrochloride, reference compound], for which the Increase in weight in series [1] (RH 14%) is listed as 1.5%; in series [1] (RH 31%, trihydrochloride), 5.9%; in series [1] (RH 43%, trihydrochloride) it was 9.1%; in series [1] (RH 52%, trihydrochloride), 12.6%; in series [1] (RH 64%, trihydrochloride), 17.9%; in series [1] (RH 76%, trihydrochloride) it was 28.3%. Besides, the “Deliquescence (in words)” value in series [1] (trihydrochloride) is “deliquesced”. Moreover, the “Amount of undecomposed substance” value in series [2] (trihydrochloride, 8640 min) was 89.8% and 83%.

Turning to `N=C(N)NCCCCCCC(=O)NC(O)C(=O)NCCCCNCCCN` (stereo not drawn) [α-form crystals, N-[4-(3-aminopropyl)aminobutyl]-2-(7-guanidinoheptanamide)-2-hydroxyethanamide trihydrochloride], the Increase in weight in series [1] (RH 31%, trihydrochloride) was -0.6% and -0.8%; in series [1] (RH 43%, trihydrochloride), -0.4%; in series [1] (RH 52%, trihydrochloride), -0.1% and -0.2%; in series [1] (RH 64%, trihydrochloride), 15.2% and 17.8%. Also, the “Water absorption (in words)” value in series [1] (RH of 52% or below) was “did not absorb water”. The “Amount of undecomposed substance” value in series [2] (trihydrochloride, 8640 min) was 100.1% and 100.0%.

Regarding `N=C(N)NCCCCCCC(=O)NC(O)C(=O)NCCCCNCCCN` (stereo not drawn) [β-form crystals, N-[4-(3-aminopropyl)aminobutyl]-2-(7-guanidinoheptanamide)-2-hydroxyethanamide trihydrochloride], the Increase in weight in series [1] (RH 31%, trihydrochloride) was 1.7% and 1.2%; in series [1] (RH 43%, trihydrochloride) it was 2.6% and 2.1%; in series [1] (RH 52%, trihydrochloride), 3.8% and 3.0%; in series [1] (RH 64%, trihydrochloride), 7.3% and 6.1%; in series [1] (RH 76%, trihydrochloride), 14.0%. Besides, in series [1] (trihydrochloride), the “Deliquescence (in words)” value is on record as “did not deliquesce”. Also, the “Amount of undecomposed substance” value in series [2] (trihydrochloride, 8640 min) is 100.6% and 100.2%.

`Cl.Cl.Cl.N=C(N)NCCCCCCC(=O)NC(O)C(=O)NCCCCNCCCN` (centres unmarked) [Powder A, N-[4-(3-aminopropyl)aminobutyl]-2-(7-guanidinoheptanamido)-2-hydroxyethanamide trihydrochloride, reference compound]: the Increase in weight in series [1] (RH 31%) worked out at 5.0%; in series [1] (RH 43%), 6.3%; in series [1] (RH 52%), 7.4%; in series [1] (RH 64%), 13.2%. Also, in series [2], the “Amount of undecomposed substance” value is listed as 59.7%.

For the origin of these results see US5196453A, “Crystalline deoxyspergualin, process for its preparation and suppository containing the same” (priority 1989, dated 1993).
